Test: Drug interaction and stability with β-limit dextrin in solution
Format: physicochemical
From the text: There are many potential applications with respect to dispersing and solubilising insoluble compounds. […] Drug interaction and stability with β-limit dextrin in solution

[1] = drug 1% in β-limit dextrin (5%)
[2] = drug 1% in β-limit dextrin (10%)

Structure (SMILES)	Drug interaction and stability in solution (drug 1% in Water)	Drug interaction and stability in solution [1]	Drug interaction and stability in solution [2]
O=C1O[C@H]([C@@H](O)CO)C(O)=C1O [Ascorbic acid]	Dissolved	Dissolved	Dissolved
CC(=O)Oc1ccccc1C(=O)O [Aspirin]	Not suspended	Suspended	Suspended
Cn1c(=O)c2[nH]cnc2n(C)c1=O [Theophylline]	Not suspended	Suspended	Suspended

Source: patent publication US8142812B2, “Chemical carrier based on a beta-limit dextrin” (Glycologic Limited, priority 2002, dated 2012)
